87 compounds from a melting point compilation (Tetko et al.; mined from patent text by program, amines drawn as free bases though some values may be those of a salt) can be followed below.

Structures are written as SMILES.

With `CCOC(=O)CC(=O)N(C)c1ccccc1[N+](=O)[O-]`, the melting point was in the range of 54 to 55 °C.
The result for `COC(=O)c1ccc(/C=C\[C@@H]2C[C@@H](NS(=O)(=O)c3ccc(Cl)cc3)CN2)cc1` reads 189 to 190 °C; that for `CCOC(=O)c1cc(-n2c(=O)c3c(n(COC)c2=O)CCC3)ccc1Cl`, 103 to 106 °C.
The result for `COc1cc(C(=O)NC2CN(C)N(C)C2)cc(OC)c1OC` reads 163 to 166 °C.
The result for `O=C(OCc1ccccc1)On1nnc2ccccc21` reads 130 to 131 °C.
Take `CCOC(=O)c1ccc(NCCCCCCCCc2ccccc2)cc1`: the melting point lay within 61 to 68 °C.
The value for `NNc1nccc(-c2ccccc2)n1` was 116 to 118 °C; that for `CSC(=C[N+](=O)[O-])Nc1ccc(C#N)cc1` was 188 to 190 °C; that for `COc1cc(OC)c(NC(=O)Nc2ccccc2)cc1O` was 162 to 164 °C.
In the case of `O=C1[C@@H]2Cc3c([nH]c4ccccc34)[C@H](c3ccc4c(c3)OCO4)N2C(=O)N1Cc1ccccc1` (relative stereo), the melting point was 208 to 210 °C.
Take `O=c1c2cnc3ccc(C(F)(F)F)cc3c2on1-c1ccccc1`: the melting point turned out to be 175 °C.
The value for `NC1=NC2(CN(C(=O)OCc3ccccc3)C2)Nc2cccc(F)c21` was 157 to 159 °C; that for `COc1cc(F)ccc1C(=O)NCCN1CCC(n2c(=O)[nH]c3cc(Cl)ccc32)CC1` was 227 °C; that for `CCOC1=CC=CC(C=O)C1(OCc1ccccc1)[N+](=O)[O-]` (configuration not stated) was 110 to 111 °C.
The result for `O=C(O)COc1c(-c2cccc(C(F)(F)F)c2)cc(C(=O)NCCCCCCOCc2ccc(OCc3ccccc3)cc2)cc1-c1cccc(C(F)(F)F)c1` reads 127 to 130 °C.
Turning to `CCCCCCCCCCCCC1=C(OC(=O)OC)C(=O)c2ccccc2C1=O`, the melting point fell in the range of 70 to 72 °C.
The value for `NC(=O)c1nc(-c2cccc(O)c2)nc2c1[nH]c(=O)n2C1CCOCC1` was 361 to 363 °C; that for `CCOC(=O)c1sc(Oc2ccc(O)cc2)c2c1CCc1cnn(C)c1-2` was 245 to 246 °C.
The value for `Cc1cccc2c1NS(=O)(=O)N(C(C)C)C2=O` was 124 °C; that for `Fc1ccc(-c2ccnc(Nc3ccc4c(c3)OCCO4)c2)cc1` was 134 to 135 °C.
For `O=C(Nc1ccccc1)Nc1cc(Cl)nc(Cl)c1`, the melting point is 219 to 222 °C.
The result for `CN(c1ncnc2[nH]ccc12)C1CCCCC1` reads 177 to 180 °C; that for `CCC(=O)Nc1nc(CN2CCC(c3c[nH]c4ccccc34)CC2)cs1`, 192 to 195 °C; that for `C=CCNc1c(F)cc2c(=O)c(C(=O)O)cn(-c3nc(N)c(F)cc3F)c2c1Cl`, 205 to 208 °C.
The result for `CCc1cc2c(cc1N)N1CCCN=C1S2` reads 210 °C.
The value for `CC(C)OC(=O)c1ccccc1SN(C(=O)NC(=O)c1ccccc1Cl)c1ccc(OC(F)(F)F)cc1` was 143 to 144 °C.
In the case of `O=C1OC(=O)c2nc3ccccc3cc21`, the melting point is 225 to 228 °C.
The result for `CCC(=O)Nc1nnc(S)s1` reads 234 to 237 °C; that for `CN(C(=O)CCCOc1ccc([N+](=O)[O-])c(C=O)c1)C1CCCCC1`, 98 to 100 °C.
The value for `CN1CCC(OC(c2cccc(SCCNc3c(N)c(=O)c3=O)c2)c2nc3ccccc3[nH]2)CC1` (configuration not stated) was 161 °C; that for `O=C(O)CCc1cn(Cc2ccc(OCc3coc(-c4ccccc4)n3)cc2)nc1-c1cccs1` was 145 to 146 °C; that for `O=C1c2ccc(C#Cc3ccccc3)cc2C(=O)N1c1ccc2c(c1)C=C2` was 194 to 195 °C.
The value for `Cc1c(N2CC[C@H](CNC3CC3)C2)c(F)cc2c(=O)c(C(=O)O)cn([C@@H]3C[C@@H]3F)c12` was 163 to 164 °C.
As for `CCOCC(=O)c1nc2c(Cl)cc(F)c(-n3c(=O)cc(C(F)(F)F)n(C)c3=O)c2o1`, the melting point lay within 56 to 58 °C.
The compound `CC1C(=O)NC2=NC=CCN21` (configuration not stated) yielded a melting point of 212 °C.
The result for `C=CCNc1nc(NCC)c2scc(C)c2n1` reads 96 to 97 °C.
The result for `OC1(Cn2cncn2)C(Cc2ccc(F)cc2)CCC12CC2` (configuration not stated) reads 89 to 90 °C; that for `CC(=O)OCc1c(C#N)cnc2c(NC(=O)c3c(Cl)cccc3Cl)cccc12`, 201 to 203 °C.
For the compound `CCc1nn(C2CCCC2)c2cc(C(=O)Nc3cccnc3)ccc12`, the melting point lay within 133 to 135 °C.
The result for `CC(C)n1nc(-c2sc(NC(=O)c3ccc(CN4CCCCC4)cc3)nc2-c2ccccc2)ccc1=O` reads 136 to 138 °C.
Consider `CCCCCCCCCCCCCCc1ccc(S(=O)(=O)Nc2nncs2)cc1`, for which the melting point lay in the range of 116 to 117 °C.
The value for `Cn1nc(-c2cccnc2)nc1-c1cccnc1` was 148 to 149 °C; that for `CCCn1c(COCC)nc2c(N)nc3cc(OC4CCN(C(C)=O)CC4)ccc3c21` was 178 to 180 °C.
The result for `CN(CCO)C(=O)Nc1ccc([N+](=O)[O-])c(C(F)(F)F)c1` reads 180 to 181 °C.
In the case of `CC(=O)Nc1ccc(C#N)cc1I`, the melting point lay within 176 to 181 °C.
The result for `Cc1[nH]c(C=O)c(C)c1CCCO` reads 85 °C; that for `O=C(O)C(=O)c1ccc(OCCOC2CCCCC2)cc1`, 96 to 98 °C; that for `CC1(C)CCCC(C)(C)N1Cc1ccc2cc(NC(=O)c3ccc(-c4ccc(Cl)cc4)nc3)ccc2n1`, 258 to 259 °C.
The value for `Cc1ccccc1N=c1scc(-c2ccc(Cl)c(S(=O)(=O)N(C)C)c2)n1C` was 158 to 162 °C.
The value for `CS(=O)(=O)c1ccc(N2CC(CO)OC2=O)cc1` (configuration not stated) was 177 to 180 °C; that for `Nc1snc2nc(-c3ccccc3)sc12` was 176 to 179 °C.
Compound `C=C(Nc1nc(-c2ccccc2)c(-c2nc3ccccc3c(=O)n2-c2ccc(OC)cc2)s1)c1ccco1` returned a melting point of 262 to 264 °C.
The result for `CC(C)(C)OC(=O)N1CCCN(c2ccnc3sc(C(N)=O)c(N)c23)CC1` reads 177 to 178 °C; that for `CCc1cc(-c2ccc(-c3ccn(C)n3)cc2)ccc1OC`, 167 to 170 °C; that for `CC(C)(C)OC(=O)N=C(c1ccc(C(=O)Nc2ccc(C(=O)NCCC(=O)OCc3ccccc3)cc2)cc1)N(C(=O)OC(C)(C)C)C(=O)OC(C)(C)C`, 164 to 165 °C.
Turning to `Oc1ccc2nc(NC3=NCCN3)[nH]c2c1`, the melting point fell in the range of 254 to 258 °C.
Take `Cn1c(COc2ccc(CC3SC(=O)NC3=O)cc2)nc2ccc(Oc3ccc(NC(=O)c4cccc(Cl)c4)cc3)cc21` (configuration not stated): the melting point was 238 to 239 °C.
The value for `CCCCCCCCC(=O)NC1CC(C)(C)N(CC#N)C(C)(C)C1` was 68 °C; that for `N#Cc1ccc2c(c1)CC[C@@H](c1ccc(F)cc1)[C@H]2Cn1cncn1` (relative stereo) was 149 °C; that for `CCS(=O)(=O)Oc1cn(C)c2cc(F)ccc2c1=O` was 154 to 156 °C.
The value for `CCOC(=O)c1c(C)noc1NS(=O)(=O)c1ccccc1-c1ccc(CC(C)C)cc1` was 133 to 134 °C; that for `O=S(=O)(Cc1ccccc1)n1c2cc(O)c(O)cc2c2ccc(O)c(O)c21` was 216 to 218 °C.
The result for `CNC(=C[N+](=O)[O-])NCCSCc1ncccc1OC` reads 146 to 147 °C; that for `COc1c2c(cc3ccc(=O)oc13)CC(O)O2` (configuration not stated), 135 to 137 °C; that for `CC1C(C)(C)c2ccc(O)cc2C1(C)C` (configuration not stated), 149 °C.
`C=CCc1ccc(OCC(O)CO)c(OC)c1` (configuration not stated) had a melting point of 77 to 79 °C.
The result for `O=S(c1ccccc1-c1ccccc1)C(F)(F)F` (configuration not stated) reads 57 to 58 °C.
The result for `CSCC[C@H](NC(=O)OCc1ccccc1)C(=O)[C@@H](C(N)c1ccccc1)[C@H](O)C(=O)N1C[C@@H](Cl)C[C@H]1C(=O)NC(C)(C)C` (some centres not stated) reads 81 to 88 °C; that for `COC(=O)COc1cc(C(F)(F)F)cc(C(F)(F)F)c1`, 65 to 67 °C.
The result for `O=C(O)CC1CCC(N2CCN(CCNc3ccncc3)CC2)CC1` (configuration not stated) reads 220 °C; that for `CCCCCCCNC(=O)c1ccccc1CN1C(=O)C2(COc3cc4c(cc32)CCO4)c2ccccc21` (configuration not stated), 196 to 198 °C.
In the case of `CCCCC[C@H]1CC[C@H](CCC2CCC(c3ccc(O)cc3)(c3ccc(O)cc3)CC2)CC1`, the melting point lay within 203 to 204 °C.
The value for `Clc1ccc2c(n1)C(c1ccccc1Cl)NCc1nncn1-2` (configuration not stated) was 206 to 208 °C; that for `CN(CCCNC1=CC(=O)c2sc(C(=O)N3CCOCC3)nc2C1=O)CCCNC1=CC(=O)c2sc(C(=O)N3CCOCC3)nc2C1=O` was 207 to 208 °C; that for `O=c1c2c([nH]n1-c1ccc(Cl)cc1F)CCCCC2` was 197 to 201 °C.
The result for `O=C(O)CN1C(=O)C(=Cc2ccc(OCCc3ccc(F)cc3)c(OCc3ccccc3)c2)SC1=S` reads 221 °C; that for `COc1cc2c(Nc3cccc(Cl)c3F)ncnc2cc1OC1CCN(C(=O)C2(O)CC2)CC1`, 177 to 178 °C; that for `COC(=O)c1cc(Cl)c(N)cc1O`, 138 to 139 °C.
The result for `Cc1ccc(C(=O)N2CCOCC2)cc1[N+](=O)[O-]` reads 108 to 110 °C; that for `CC(c1cccnc1)N(c1ccc(F)cc1)S(C)(=O)=O` (configuration not stated), 82 to 85 °C; that for `O=C(N[C@H]1CCN(CCc2ccc(F)cc2)C1)N(C1CCCCC1)C1CCCCC1`, 97 to 98 °C.
In the case of `CCCCCCCCCCCCCCCCCC(=O)C(=O)OCC`, the melting point is 43 to 44 °C.
The result for `Nc1c(Br)cc(C2=NNC(=O)Cc3cc4c(cc32)OCO4)cc1Br` reads 162 to 165 °C.
The result for `CCN1C(=O)C(C)(C)C(=O)N(C)c2cc(CN(CCn3ccc4occc4c3=O)Cc3cccnc3COC)ccc21` reads 123 to 125 °C.
In turn, `N=C(N)SCc1cccc(CSC(=N)N)c1` registered a melting point of 216 to 218 °C.
The result for `COCCNC(=O)c1ccc(C(=O)NS(=O)(=O)c2ccccc2)cn1` reads 190 to 191 °C; that for `CCOC(=O)c1cccc2c1c(C(=O)C(=O)NC1=CC(=O)OC1)cn2Cc1ccc(Cl)cc1`, 242 to 244 °C.

What is called melting point is the temperature, or range, at which the solid turns liquid.
